Test results taken from ChEMBL document CHEMBL4265893, “Design, synthesis and biological evaluation of ring A modified 11-keto-boswellic acid derivatives as Pin1 inhibitors with remarkable anti-prostate cancer activity” (Bioorg Med Chem Lett, 2018).

Legend:
[1] = target: T1, Peptidyl-prolyl cis-trans isomerase NIMA-interacting 1 (Homo sapiens, UniProt Q13526); assay: Inhibition of recombinant N-terminal His6-tagged human Pin1 using Suc-Ala-Glu-cis-Pro-Phe-4-nitroanilide as substrate preincubated for 30 mins followed by substrate addition measured for 90 secs
T1 sequence (Q13526 whole entry): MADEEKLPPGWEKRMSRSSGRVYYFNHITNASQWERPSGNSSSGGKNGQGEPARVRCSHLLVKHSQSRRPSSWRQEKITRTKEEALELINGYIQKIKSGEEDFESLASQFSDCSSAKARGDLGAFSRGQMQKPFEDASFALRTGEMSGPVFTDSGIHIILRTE

PC-3 [2] = assay: Antiproliferative activity against human PC3 cells after 96 hrs by MTT assay; assay type: functional; details: PC-3, 96 h
[3] = target: T1, Peptidyl-prolyl cis-trans isomerase NIMA-interacting 1; assay: Inhibition of recombinant N-terminal His6-tagged human Pin1 at 10 uM using Suc-Ala-Glu-cis-Pro-Phe-4-nitroanilide as substrate preincubated for 30 mins followed by substrate addition measured for 90 secs
PC-3 [4] = assay: Induction of apoptosis in human PC3 cells assessed as downregulation of Cyclin D1 expression after 24 hrs by Western blot analysis; assay type: functional, cell-based
PC-3 [5] = assay: Cell cycle arrest in human PC3 cells assessed as accumulation at G0/G1 phase at 1 uM after 24 hrs by RNase/propidium iodide staining-based flow cytometric analysis (reference value: 55.03%); assay type: functional
PC-3 [6] = assay: Cell cycle arrest in human PC3 cells assessed as accumulation at G0/G1 phase at 0.25 uM after 24 hrs by RNase/propidium iodide staining-based flow cytometric analysis (reference value: 55.03%); assay type: functional
PC-3 [7] = assay: Cell cycle arrest in human PC3 cells assessed as accumulation at G0/G1 phase at 0.5 uM after 24 hrs by RNase/propidium iodide staining-based flow cytometric analysis (reference value: 55.03%); assay type: functional

## CC(=O)O[C@@H]1CC[C@@]2(C)[C@@H](CC[C@]3(C)[C@@H]2C(=O)C=C2[C@@H]4[C@@H](C)[C@H](C)CC[C@]4(C)CC[C@]23C)[C@@]1(C)C(=O)O [AKBA]
[1]
  IC50: 50.4 µM
PC-3 [2]
  GI50: 31.9 µM
[3]
  inhibition: 26%

## C[C@H]1[C@H](C)CC[C@]2(C)CC[C@]3(C)C(=CC(=O)[C@@H]4[C@@]5(C)C/C(=C\c6ccc(C(=O)O)cc6)C(=O)[C@](C)(C(=O)OCc6ccccc6)[C@@H]5CC[C@]43C)[C@H]12
PC-3 [2]
  GI50: 32.1 µM
[3]
  inhibition: 40%

## CCN(CC)CC(=O)O[C@@H]1CC[C@@]2(C)[C@@H](CC[C@]3(C)[C@@H]2C(=O)C=C2[C@@H]4[C@@H](C)[C@H](C)CC[C@]4(C)CC[C@]23C)[C@@]1(C)C(=O)O
PC-3 [2]
  GI50: 10.7 µM
[3]
  inhibition: 58%

## C[C@H]1[C@H](C)CC[C@]2(C)CC[C@]3(C)C(=CC(=O)[C@@H]4[C@@]5(C)CC[C@@H](OC(=O)CN6CCCCC6)[C@](C)(C(=O)O)[C@@H]5CC[C@]43C)[C@H]12
[1]
  IC50: 1.01 µM
PC-3 [2]
  GI50: 11.6 µM
[3]
  inhibition: 95%

## C[C@H]1[C@H](C)CC[C@]2(C)CC[C@]3(C)C(=CC(=O)[C@@H]4[C@@]5(C)CC[C@@H](OC(=O)CN6CCOCC6)[C@](C)(C(=O)O)[C@@H]5CC[C@]43C)[C@H]12
PC-3 [2]
  GI50: 10.6 µM
[3]
  inhibition: 78%

## C[C@H]1[C@H](C)CC[C@]2(C)CC[C@]3(C)C(=CC(=O)[C@@H]4[C@@]5(C)C/C(=C\C(=O)O)C(=O)[C@](C)(C(=O)N6CCCCC6)[C@@H]5CC[C@]43C)[C@H]12
[1]
  IC50: 0.55 µM
PC-3 [2]
  GI50: 7.11 µM
[3]
  inhibition: 89%

## C[C@H]1[C@H](C)CC[C@]2(C)CC[C@]3(C)C(=CC(=O)[C@@H]4[C@@]5(C)CC[C@@H](OC(=O)CN6CCN(c7cccc(C(F)(F)F)c7)CC6)[C@](C)(C(=O)O)[C@@H]5CC[C@]43C)[C@H]12
[1]
  IC50: 2.18 µM
PC-3 [2]
  GI50: 12.5 µM
[3]
  inhibition: 80%

## C[C@H]1[C@H](C)CC[C@]2(C)CC[C@]3(C)C(=CC(=O)[C@@H]4[C@@]5(C)C/C(=C\C(=O)O)C(=O)[C@](C)(C(=O)OCc6ccccc6)[C@@H]5CC[C@]43C)[C@H]12
PC-3 [4]
  Activity: Dose-dependent effect
PC-3 [5]
  Activity: 72%
[1]
  IC50: 0.46 µM
PC-3 [2]
  GI50: 1.82 µM
PC-3 [6]
  Activity: 62.35%
[3]
  inhibition: 97%
PC-3 [7]
  Activity: 67.62%

## C[C@H]1[C@H](C)CC[C@]2(C)CC[C@]3(C)C(=CC(=O)[C@@H]4[C@@]5(C)CC[C@@H](OC(=O)COc6ccccc6)[C@](C)(C(=O)O)[C@@H]5CC[C@]43C)[C@H]12
PC-3 [2]
  GI50: 18.5 µM
[3]
  inhibition: 35%

## C[C@H]1[C@H](C)CC[C@]2(C)CC[C@]3(C)C(=CC(=O)[C@@H]4[C@@]5(C)C/C(=C\C(=O)O)C(=O)[C@](C)(C(=O)N6CCOCC6)[C@@H]5CC[C@]43C)[C@H]12
[1]
  IC50: 2.68 µM
PC-3 [2]
  GI50: 2.78 µM
[3]
  inhibition: 82%

## COC(=O)[C@@]1(C)C(=O)/C(=C/c2ccc(C(=O)O)cc2)C[C@]2(C)[C@H]3C(=O)C=C4[C@@H]5[C@@H](C)[C@H](C)CC[C@]5(C)CC[C@@]4(C)[C@]3(C)CC[C@@H]12
PC-3 [2]
  GI50: > 50 µM
[3]
  inhibition: 43%

## C[C@H]1[C@H](C)CC[C@]2(C)CC[C@]3(C)C(=CC(=O)[C@@H]4[C@@]5(C)Cc6c(C(=O)O)n[nH]c6[C@](C)(C(=O)OCc6ccccc6)[C@@H]5CC[C@]43C)[C@H]12
PC-3 [2]
  GI50: 22.7 µM
[3]
  inhibition: 31%

## COC(=O)[C@@]1(C)c2[nH]nc(C(=O)O)c2C[C@@]2(C)[C@H]1CC[C@]1(C)[C@@H]2C(=O)C=C2[C@@H]3[C@@H](C)[C@H](C)CC[C@]3(C)CC[C@]21C
PC-3 [2]
  GI50: 37.6 µM
[3]
  inhibition: 56%

## C[C@H]1[C@H](C)CC[C@]2(C)CC[C@]3(C)C(=CC(=O)[C@@H]4[C@@]5(C)CC[C@@H](OC(=O)COc6ccc(-c7cc(-c8ccccc8)[nH]n7)cc6)[C@](C)(C(=O)O)[C@@H]5CC[C@]43C)[C@H]12
PC-3 [2]
  GI50: 7.8 µM
[3]
  inhibition: 66%

## C[C@H]1[C@H](C)CC[C@]2(C)CC[C@]3(C)C(=CC(=O)[C@@H]4[C@@]5(C)C/C(=C\c6ccccc6C(=O)O)C(=O)[C@](C)(C(=O)OCc6ccccc6)[C@@H]5CC[C@]43C)[C@H]12
[1]
  IC50: 0.68 µM
PC-3 [2]
  GI50: 3.29 µM
[3]
  inhibition: 94%

## COC(=O)[C@@]1(C)c2onc(C(=O)O)c2C[C@@]2(C)[C@H]1CC[C@]1(C)[C@@H]2C(=O)C=C2[C@@H]3[C@@H](C)[C@H](C)CC[C@]3(C)CC[C@]21C
PC-3 [2]
  GI50: 37.6 µM
[3]
  inhibition: 41%

## CC(=O)N1N=C(c2ccc(OCC(=O)O[C@@H]3CC[C@@]4(C)[C@@H](CC[C@]5(C)[C@@H]4C(=O)C=C4[C@@H]6[C@@H](C)[C@H](C)CC[C@]6(C)CC[C@]45C)[C@@]3(C)C(=O)O)cc2)CC1c1ccccc1 (some centres undefined)
PC-3 [2]
  GI50: 9.42 µM
[3]
  inhibition: 32%

## COC(=O)[C@@]1(C)C(=O)/C(=C/C(=O)O)C[C@]2(C)[C@H]3C(=O)C=C4[C@@H]5[C@@H](C)[C@H](C)CC[C@]5(C)CC[C@@]4(C)[C@]3(C)CC[C@@H]12
PC-3 [2]
  GI50: 8 µM
[3]
  inhibition: 51%

## CC1CCN(CC(=O)O[C@@H]2CC[C@@]3(C)[C@@H](CC[C@]4(C)[C@@H]3C(=O)C=C3[C@@H]5[C@@H](C)[C@H](C)CC[C@]5(C)CC[C@]34C)[C@@]2(C)C(=O)O)CC1
PC-3 [2]
  GI50: 15.6 µM
[3]
  inhibition: 78%

## C[C@H]1[C@H](C)CC[C@]2(C)CC[C@]3(C)C(=CC(=O)[C@@H]4[C@@]5(C)CC[C@@H](OC(=O)CNc6ccccc6)[C@](C)(C(=O)O)[C@@H]5CC[C@]43C)[C@H]12
PC-3 [2]
  GI50: 12.1 µM
[3]
  inhibition: 46%

## C[C@H]1[C@H](C)CC[C@]2(C)CC[C@]3(C)C(=CC(=O)[C@@H]4[C@@]5(C)CC[C@@H](OC(=O)COc6ccc(C(=O)/C=C/c7ccccc7)cc6)[C@](C)(C(=O)O)[C@@H]5CC[C@]43C)[C@H]12
[1]
  IC50: 0.97 µM
PC-3 [2]
  GI50: 8.84 µM
[3]
  inhibition: 95%

## C[C@H]1[C@H](C)CC[C@]2(C)CC[C@]3(C)C(=CC(=O)[C@@H]4[C@@]5(C)CC[C@@H](OC(=O)CN(CCO)CCO)[C@](C)(C(=O)O)[C@@H]5CC[C@]43C)[C@H]12
PC-3 [2]
  GI50: > 50 µM
[3]
  inhibition: 59%

## C[C@H]1[C@H](C)CC[C@]2(C)CC[C@]3(C)C(=CC(=O)[C@@H]4[C@@]5(C)Cc6c(C(=O)O)noc6[C@](C)(C(=O)OCc6ccccc6)[C@@H]5CC[C@]43C)[C@H]12
PC-3 [2]
  GI50: 26.9 µM
[3]
  inhibition: 29%

## C[C@H]1[C@H](C)CC[C@]2(C)CC[C@]3(C)C(=CC(=O)[C@@H]4[C@@]5(C)CC[C@@H](OC(=O)COc6ccc(Oc7ccccc7)cc6)[C@](C)(C(=O)O)[C@@H]5CC[C@]43C)[C@H]12
[1]
  IC50: 1.58 µM
PC-3 [2]
  GI50: 12.5 µM
[3]
  inhibition: 90%

## C[C@H]1[C@H](C)CC[C@]2(C)CC[C@]3(C)C(=CC(=O)[C@@H]4[C@@]5(C)C/C(=C\c6ccccc6)C(=O)[C@](C)(C(=O)OCc6ccccc6)[C@@H]5CC[C@]43C)[C@H]12
PC-3 [2]
  GI50: > 50 µM
[3]
  inhibition: 37%

## COC(=O)[C@@]1(C)C(=O)/C(=C/c2ccccc2C(=O)O)C[C@]2(C)[C@H]3C(=O)C=C4[C@@H]5[C@@H](C)[C@H](C)CC[C@]5(C)CC[C@@]4(C)[C@]3(C)CC[C@@H]12
PC-3 [2]
  GI50: 15.2 µM
[3]
  inhibition: 69%

## C[C@H]1[C@H](C)CC[C@]2(C)CC[C@]3(C)C(=CC(=O)[C@@H]4[C@@]5(C)CC[C@@H](OC(=O)CN6CCN(C)CC6)[C@](C)(C(=O)O)[C@@H]5CC[C@]43C)[C@H]12
PC-3 [2]
  GI50: 37.9 µM
[3]
  inhibition: 24%

## COc1ccccc1/C=C1\C[C@]2(C)[C@H]3C(=O)C=C4[C@@H]5[C@@H](C)[C@H](C)CC[C@]5(C)CC[C@@]4(C)[C@]3(C)CC[C@H]2[C@@](C)(C(=O)OCc2ccccc2)C1=O
PC-3 [2]
  GI50: > 50 µM
[3]
  inhibition: 57%

## C[C@H]1[C@H](C)CC[C@]2(C)CC[C@]3(C)C(=CC(=O)[C@@H]4[C@@]5(C)CC[C@@H](OC(=O)CN6CCNCC6)[C@](C)(C(=O)O)[C@@H]5CC[C@]43C)[C@H]12
PC-3 [2]
  GI50: > 50 µM
[3]
  inhibition: 49%

## C[C@H]1[C@H](C)CC[C@]2(C)CC[C@]3(C)C(=CC(=O)[C@@H]4[C@@]5(C)CC[C@@H](OC(=O)CN(C)c6ccccc6)[C@](C)(C(=O)O)[C@@H]5CC[C@]43C)[C@H]12
[1]
  IC50: 1.27 µM
PC-3 [2]
  GI50: 13.7 µM
[3]
  inhibition: 94%
